In the assay the test system is ZIKV. Kind of assay: ZIKV reporter virus-based antiviral screening on Huh7 cells. The class given is cell-based, Zika virus. The note with it: Zika virus, Huh-7, 48 h, Huh7 cells infected with recombinant luciferase reporter ZIKV (MOI about 0.1), luciferase signal. An excerpt: Protocol for ZIKV reporter virus-based antiviral screening on Huh7 cells:
• Human hepatocyte-derived carcinoma cell line (Huh7) 2. Reagents • ViviRen™ Live Cell Substrate (Promega, Cat #E6492) or Nano Glo assay system (Promega: N1130) • White opaque 96-well TC-treated microplates (Corning, Cat #3916) • 96-well Clear V-Bottom TC-treated Microplate (Corning, Cat #3894) • Complete cell culture media: DMEM (Gibco, Cat #10569) supplemented with 10% FBS (HyClone, Cat #SH30071.03IH25-40)+1% MEM Non-Essential Amino Acids Solution 100×(Gibco, Cat #11140050)+1% Penicillin-Streptomycin (10,000 U/mL) (Gibco, Cat #15140122). • Assay media: DMEM media (Gibco, Cat #31053028) supplemented with 2% FBS, 2% GlutaMAX™ Supplement (Gibco Cat #35050061), 1% Sodium Pyruvate solution (Gibco, Cat #11360070), 1% MEM Non-Essential Amino Acids Solution 100× and 1% Penicillin-Streptomycin (10,000 U/mL). • Trypsin-EDTA solution (Gibco, Cat #25200056) 3. Virus • Recombinant ZIKV strain with Renilla luciferase gene (strain FSS-Rlu) or Nano luciferase gene (Strain PRV-Nano, Dakar-Nano) 4. Instruments • BioTek Cytation 5 or other plate-readers for chemiluminescence detection model. • Eppendorf plate centrifuge • Plate shaker • Eppendorf multichannel pipettes Procedures Day 1: Preparation of Cells • Human hepatocyte-derived carcinoma cell line (Huh7) cells were detached from a T-175 flask by using a Trypsin-EDTA solution. The detached cells were suspended in complete culture media in a sterile 50-ml conical tube. • The 50-ml conical tube was centrifuged at 1200×rpm for 3 min at room temperature. • The cells were resuspended in assay media. The cell numbers were counted, and the cells diluted to a density of 3×10^5 cells/ml. • The cells were plated at 50 μl cells per well in White opaque 96-well plates (assay plates). Gently shake the plates to ensure cells to attach to the plate evenly. • The plated cells were incubated in a humidified incubator (37° C. with 5% CO2). Day 2: Infection • 1) Nine serial (2-fold or 3-fold) concentrated compounds were prepared using 90% DMSO solution and DMSO controls in a clear V-bottom 96-well plate (compound plate). • For example:
• 2) The reporter virus stock was diluted to a concentration of 3×10^4 FFU (FFU: focus-forming unit)/ml using the assay media. 200 μl diluted virus per well was aliquoted into a clear V-bottom 96-well plate (mixing plate). • 3) 1 μl above 400×concentrated compound dilutions was added from the compound plate to each well of the mixing plate. The plates were shaken on a plate shaker for 5 min. • 4) 50 μl compound-virus mixture was added into each well of the assay plates (the MOI is about 0.1). The plates were shaken gently by mixing the virus evenly. • An example of the format for assay plate:
• control. • 5) The plates were centrifuged at 1000 rpm for 15 s. • 6) The plates were incubated at 37° C. with 5% CO2 in a humidified incubator for 48 hrs. Day 4: Read Luciferase Signals • 7) The ViviRen™ Live Cell Substrate was diluted in assay media for 3000× folds. 25 μl of diluted substrates was added into each well of the assay plates. • For Nano-Glo assay system, 50 μl diluted substrates (50×fold diluted from the stock in assay buffer) were added. • 8) The plates were incubated at room temperature for 5 min. • 9) Optimally, cell viability is measured using the Promega Cell-titer Glo kit (only used when ZIKV-Rlu was used for infection). • 10) Luciferase signals were read using the Cytation 5 with gain value of 120-150. Data Analysis • a. The luciferase signals from DMSO-treated groups (un-treated controls) were set as 100%. The relative luciferase signals were obtained by normalizing the luciferase signals from each dilution-treated group to that of the controls. • b.
(A reporter such as luciferase makes a cellular process visible.)

Turning to `CC[C@@H](C)[C@H](NC(=O)OC)C(=O)N1CCC[C@H]1c1nc(Cl)c(-c2cc3c4c(c2)OCc2cc(-c5[nH]c([C@@H]6CCCN6C(=O)[C@@H](NC(=O)OC)[C@H](C)CC)nc5Cl)cc(c2-4)OC3)[nH]1` [Compound 32, dimethyl ((2S,2′S,3R,3′R)-((2S,2′S)-((5,10-dihydrochromeno[5,4,3-cde]chromene-2,7-diyl)bis(4-chloro-1H-imidazole-5,2-diyl))bis(pyrrolidine-2,1-diyl))bis(3-methyl-1-oxopentane-1,2-diyl))dicarbamate], the EC50 was found to be 1.1 nM.

On to `CC[C@H](C)[C@H](NC(=O)OC)C(=O)N1CC(F)(F)C[C@H]1c1nc(Cl)c(-c2cc3c4c(c2)OCc2cc(-c5[nH]c([C@@H]6CC(F)(F)CN6C(=O)[C@@H](NC(=O)OC)[C@@H](C)CC)nc5Cl)cc(c2-4)OC3)[nH]1` [Compound 57, dimethyl ((2S,2′S,3S,3′S)-((5S,5′S)-((5,10-dihydrochromeno[5,4,3-cde]chromene-2,7-diyl)bis(4-chloro-1H-imidazole-5,2-diyl))bis(3,3-difluoropyrrolidine-5,1-diyl))bis(3-methyl-1-oxopentane-1,2-diyl))dicarbamate], for which the EC50 turned out to be 4.6 nM.

On to `CC[C@H](C)[C@H](NC(=O)OC)C(=O)N1C[C@H](C)C[C@H]1c1nc(Cl)c(-c2cc3c4c(c2)OCc2cc(-c5[nH]c([C@@H]6C[C@@H](C)CN6C(=O)[C@@H](NC(=O)OC)[C@@H](C)CC)nc5Cl)cc(c2-4)OC3)[nH]1` [Compound 2, dimethyl ((2S,2′S,3S,3′S)-((3R,3′R,5S,5′S)-((5,10-dihydrochromeno[5,4,3-cde]chromene-2,7-diyl)bis(4-chloro-1H-imidazole-5,2-diyl))bis(3-methylpyrrolidine-5,1-diyl))bis(3-methyl-1-oxopentane-1,2-diyl))dicarbamate], for which the EC50 was found to be 6.5 nM.

In the case of `CC[C@H](C)[C@H](NC(=O)OC)C(=O)N1C[C@@H](F)C[C@H]1c1nc(Cl)c(-c2cc3c4c(c2)OCc2cc(-c5[nH]c([C@@H]6C[C@H](F)CN6C(=O)[C@@H](NC(=O)OC)[C@@H](C)CC)nc5Cl)cc(c2-4)OC3)[nH]1` [Compound 51, dimethyl ((2S,2′S,3S,3′S)-((3S,3′S,5S,5′S)-((5,10-dihydrochromeno[5,4,3-cde]chromene-2,7-diyl)bis(4-chloro-1H-imidazole-5,2-diyl))bis(3-fluoropyrrolidine-5,1-diyl))bis(3-methyl-1-oxopentane-1,2-diyl))dicarbamate], the half-maximal effective concentration (EC50) was determined as 98.8 nM.

For the compound `CCCc1nc([C@@H]2CCCN2C(=O)[C@@H](NC(=O)OC)C(C)C)[nH]c1-c1cc2c3c(c1)OCc1cc(-c4[nH]c([C@@H]5CCCN5C(=O)[C@@H](NC(=O)OC)C(C)C)nc4CCC)cc(c1-3)OC2` [Compound 79, dimethyl ((2S,2′S)-((2S,2′S)-((5,10-dihydrochromeno[5,4,3-cde]chromene-2,7-diyl)bis(4-propyl-1H-imidazole-5,2-diyl))bis(pyrrolidine-2,1-diyl))bis(3-methyl-1-oxobutane-1,2-diyl))dicarbamate], the EC50 is 200 nM.

For the compound `CC[C@H](C)[C@H](NC(=O)OC)C(=O)N1CCC[C@H]1c1ncc(-c2cc3c4c(c2)OCc2cc(-c5[nH]c([C@@H]6CCCN6C(=O)[C@@H](NC(=O)OC)[C@@H](C)CC)nc5Cl)cc(c2-4)OC3)[nH]1` [Compound 22, methyl ((2S,3S)-1-((S)-2-(5-(7-(4-chloro-2-((S)-1-((methoxycarbonyl)-L-isoleucyl)pyrrolidin-2-yl)-1H-imidazol-5-yl)-5,10-dihydrochromeno[5,4,3-cde]chromen-2-yl)-1H-imidazol-2-yl)pyrrolidin-1-yl)-3-methyl-1-oxopentan-2-yl)carbamate], the EC50 amounted to 14.1 nM.

Turning to `CC[C@H](C)[C@H](NC(=O)OC)C(=O)N1[C@@H](C)CC[C@H]1c1nc(C(C)C)c(-c2cc3c4c(c2)OCc2cc(-c5[nH]c([C@@H]6CC[C@H](C)N6C(=O)[C@@H](NC(=O)OC)[C@@H](C)CC)nc5C(C)C)cc(c2-4)OC3)[nH]1` [Compound 41, dimethyl ((2S,2′S,3S,3′S)-((2S,2′S,5S,5′S)-((5,10-dihydrochromeno[5,4,3-cde]chromene-2,7-diyl)bis(4-isopropyl-1H-imidazole-5,2-diyl))bis(2-methylpyrrolidine-5,1-diyl))bis(3-methyl-1-oxopentane-1,2-diyl))dicarbamate], the EC50 stood at 2.8 nM.

Regarding `COC(=O)N[C@H](C(=O)N1[C@H](c2nc(Cl)c(-c3cc4c5c(c3)OCc3cc(-c6[nH]c([C@@H]7C[C@@H]8CCC[C@@H]8N7C(=O)[C@@H](NC(=O)OC)C(C)(C)C(F)(F)F)nc6Cl)cc(c3-5)OC4)[nH]2)C[C@@H]2CCC[C@@H]21)C(C)(C)C(F)(F)F` [Compound 35, dimethyl ((2S,2′S)-((2S,2′S,3aS,3a′S,6aS,6a′S)-((5,10-dihydrochromeno[5,4,3-cde]chromene-2,7-diyl)bis(4-chloro-1H-imidazole-5,2-diyl))bis(hexahydrocyclopenta[b]pyrrole-2,1(2H)-diyl))bis(4,4,4-trifluoro-3,3-dimethyl-1-oxobutane-1,2-diyl))dicarbamate], the EC50 worked out at 4.5 nM.

`COC(=O)N[C@H](C(=O)N1[C@H](C)CC[C@H]1c1nc(Cl)c(-c2cc3c4c(c2)OCc2cc(-c5[nH]c([C@@H]6CC[C@@H](C)N6C(=O)[C@@H](NC(=O)OC)C(C)C)nc5Cl)cc(c2-4)OC3)[nH]1)C(C)C` [Compound 62, dimethyl ((2S,2′S)-((2R,2′R,5S,5′S)-((5,10-dihydrochromeno[5,4,3-cde]chromene-2,7-diyl)bis(4-chloro-1H-imidazole-5,2-diyl))bis(2-methylpyrrolidine-5,1-diyl))bis(3-methyl-1-oxobutane-1,2-diyl))dicarbamate]: the EC50 worked out at 17.7 nM.

Take `COC(=O)N[C@H](C(=O)N1[C@H](c2nc(Cl)c(-c3cc4c5c(c3)OCc3cc(-c6[nH]c([C@@H]7C[C@@H]8CCC[C@@H]8N7C(=O)[C@@H](NC(=O)OC)C(C)C)nc6Cl)cc(c3-5)OC4)[nH]2)C[C@@H]2CCC[C@@H]21)C(C)C` [Compound 29, dimethyl ((2S,2′S)-((2S,2′S,3aS,3a′S,6aS,6a′S)-((5,10-dihydrochromeno[5,4,3-cde]chromene-2,7-diyl)bis(4-chloro-1H-imidazole-5,2-diyl))bis(hexahydrocyclopenta[b]pyrrole-2,1(2H)-diyl))bis(3-methyl-1-oxobutane-1,2-diyl))dicarbamate]: the EC50 was 1.8 nM.

Turning to `COC(=O)N[C@H](C(=O)N1C[C@@H](C)C[C@H]1c1nc(Cl)c(-c2cc3c4c(c2)OCc2cc(-c5[nH]c([C@@H]6C[C@H](C)CN6C(=O)[C@@H](NC(=O)OC)[C@@H](C)OC)nc5Cl)cc(c2-4)OC3)[nH]1)[C@@H](C)OC` [Compound 47, dimethyl ((2S,2′S,3R,3′R)-((3S,3′S,5S,5′S)-((5,10-dihydrochromeno[5,4,3-cde]chromene-2,7-diyl)bis(4-chloro-1H-imidazole-5,2-diyl))bis(3-methylpyrrolidine-5,1-diyl))bis(3-methoxy-1-oxobutane-1,2-diyl))dicarbamate], the EC50 stood at 16.9 nM.

On to `CC[C@H](C)[C@H](NC(=O)OC)C(=O)N1[C@@H](C)CC[C@H]1c1nc(Cl)c(-c2cc3c4c(c2)OCc2cc(-c5[nH]c([C@@H]6CC[C@H](C)N6C(=O)[C@@H](NC(=O)OC)[C@@H](C)CC)nc5C(C)C)cc(c2-4)OC3)[nH]1` [Compound 44, methyl ((2S,3S)-1-((2S,5S)-2-(5-(7-(4-chloro-2-((2S,5S)-1-((methoxycarbonyl)-L-isoleucyl)-5-methylpyrrolidin-2-yl)-1H-imidazol-5-yl)-5,10-dihydrochromeno[5,4,3-cde]chromen-2-yl)-4-isopropyl-1H-imidazol-2-yl)-5-methylpyrrolidin-1-yl)-3-methyl-1-oxopentan-2-yl)carbamate], for which the concentration for a half-maximal effect (EC50) stood at 1.9 nM.

What is called EC50 is the concentration needed to bring the measured effect to its halfway point.

Source of the values: US12497408B2, “Tetracyclic compounds and methods for the treatment of Zika virus infection” (priority 2021, dated 2025).
